Calls of active or inactive are those of the source. The rule behind the calls is not given here.
Columns and labels:
[1] = biological target: Metabotropic glutamate receptor 2 (Rattus norvegicus, UniProt P31421); experiment: Positive allosteric modulation of rat mGluR2 expressed in HEK293 cells co-expressing Galpha15 G protein assessed as increase in glutamate-induced intracellular calcium release by FLIPR assay; type: functional, cell-based
D(2) dopamine receptor = D(2) dopamine receptor (Rattus norvegicus, UniProt P61169); experiment: Displacement of [3H]spiperone from dopamine D2 receptor in rat corpus striatum by beta plate scintillation counting; type: tissue-based
Chain of D(2) dopamine receptor (P61169 whole entry): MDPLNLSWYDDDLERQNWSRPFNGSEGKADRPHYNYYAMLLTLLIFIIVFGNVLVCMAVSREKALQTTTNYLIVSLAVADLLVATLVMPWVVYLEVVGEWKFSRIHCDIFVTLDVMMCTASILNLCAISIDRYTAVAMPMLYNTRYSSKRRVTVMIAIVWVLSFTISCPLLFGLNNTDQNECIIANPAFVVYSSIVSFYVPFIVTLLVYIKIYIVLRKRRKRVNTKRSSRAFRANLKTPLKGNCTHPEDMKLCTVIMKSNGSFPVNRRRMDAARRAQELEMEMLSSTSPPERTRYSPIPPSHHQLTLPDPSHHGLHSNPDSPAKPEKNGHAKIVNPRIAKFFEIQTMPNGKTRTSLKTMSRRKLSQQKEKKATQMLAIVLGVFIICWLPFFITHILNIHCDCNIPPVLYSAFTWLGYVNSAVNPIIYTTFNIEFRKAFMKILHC

MDCK = experiment: Efflux ratio of permeability from […] of MDR1 transfected MDCK cells at 1 uM; type: ADME, cell-based, Canis lupus familiaris; details: dog
[2] = Ratio of drug level in brain to plasma in rat at 3.2 mg/kg, sc after 60 mins; type: ADME, organism-based; set-up: dose 3.2 mg/kg, route subcutaneous
[3] = Cmax in rat brain at 10 mg/kg, po; type: ADME, organism-based; set-up: dose 10 mg/kg, route oral
[4] = Permeability from apical to basolateral side of MDR1 transfected MDCK cells at 1 uM; type: ADME, cell-based, Canis lupus familiaris; details: dog, read-out: permeability
HEK293 = experiment: Selectivity ratio of Ki for dopamine D2 receptor in rat corpus striatum to EC50 for rat mGluR2 expressed in HEK293 cells; type: cell-based
[5] = Plasma clearance in rat at 1 mg/kg, iv; type: ADME, organism-based; set-up: dose 1 mg/kg, route intravenous
[6] = biological target: Metabotropic glutamate receptor 2 (Homo sapiens, UniProt Q14416); experiment: Positive allosteric modulation of human mGluR2 expressed in HEK293 cells co-expressing Galpha15 G protein assessed as increase in glutamate-induced intracellular calcium release by FLIPR assay; type: functional, cell-based
Chain of Metabotropic glutamate receptor 2 (Homo sapiens, UniProt Q14416) (Q14416 whole entry): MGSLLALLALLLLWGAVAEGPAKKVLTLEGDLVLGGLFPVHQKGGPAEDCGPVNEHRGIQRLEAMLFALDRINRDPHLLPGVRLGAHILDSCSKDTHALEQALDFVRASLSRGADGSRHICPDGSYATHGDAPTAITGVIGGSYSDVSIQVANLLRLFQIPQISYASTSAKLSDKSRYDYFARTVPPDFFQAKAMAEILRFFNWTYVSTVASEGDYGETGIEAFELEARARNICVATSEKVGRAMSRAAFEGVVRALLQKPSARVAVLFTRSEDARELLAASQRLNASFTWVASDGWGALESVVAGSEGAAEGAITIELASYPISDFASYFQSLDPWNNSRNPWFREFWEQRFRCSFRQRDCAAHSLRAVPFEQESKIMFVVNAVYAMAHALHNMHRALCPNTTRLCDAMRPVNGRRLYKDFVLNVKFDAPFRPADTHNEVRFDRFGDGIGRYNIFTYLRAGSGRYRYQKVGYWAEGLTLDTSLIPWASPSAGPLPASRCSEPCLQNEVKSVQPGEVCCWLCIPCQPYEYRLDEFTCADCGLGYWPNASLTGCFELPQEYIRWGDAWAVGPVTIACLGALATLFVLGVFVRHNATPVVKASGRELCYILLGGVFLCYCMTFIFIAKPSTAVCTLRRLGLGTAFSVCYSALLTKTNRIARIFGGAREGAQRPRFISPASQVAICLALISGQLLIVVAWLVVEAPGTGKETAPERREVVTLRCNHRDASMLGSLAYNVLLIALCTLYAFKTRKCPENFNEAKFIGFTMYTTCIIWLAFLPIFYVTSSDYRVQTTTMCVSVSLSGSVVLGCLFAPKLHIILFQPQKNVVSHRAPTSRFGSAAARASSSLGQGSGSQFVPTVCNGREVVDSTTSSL

[7] = Oral bioavailability in rat at 10 mg/kg; type: ADME, organism-based; details: in vivo
[8] = biological target: Metabotropic glutamate receptor 1 (Homo sapiens) (UniProt Q13255); experiment: Agonist activity at mGlu1 receptor at up to 10 uM; type: functional
Chain of Metabotropic glutamate receptor 1 (Homo sapiens) (Q13255 19-1194 limits assumed): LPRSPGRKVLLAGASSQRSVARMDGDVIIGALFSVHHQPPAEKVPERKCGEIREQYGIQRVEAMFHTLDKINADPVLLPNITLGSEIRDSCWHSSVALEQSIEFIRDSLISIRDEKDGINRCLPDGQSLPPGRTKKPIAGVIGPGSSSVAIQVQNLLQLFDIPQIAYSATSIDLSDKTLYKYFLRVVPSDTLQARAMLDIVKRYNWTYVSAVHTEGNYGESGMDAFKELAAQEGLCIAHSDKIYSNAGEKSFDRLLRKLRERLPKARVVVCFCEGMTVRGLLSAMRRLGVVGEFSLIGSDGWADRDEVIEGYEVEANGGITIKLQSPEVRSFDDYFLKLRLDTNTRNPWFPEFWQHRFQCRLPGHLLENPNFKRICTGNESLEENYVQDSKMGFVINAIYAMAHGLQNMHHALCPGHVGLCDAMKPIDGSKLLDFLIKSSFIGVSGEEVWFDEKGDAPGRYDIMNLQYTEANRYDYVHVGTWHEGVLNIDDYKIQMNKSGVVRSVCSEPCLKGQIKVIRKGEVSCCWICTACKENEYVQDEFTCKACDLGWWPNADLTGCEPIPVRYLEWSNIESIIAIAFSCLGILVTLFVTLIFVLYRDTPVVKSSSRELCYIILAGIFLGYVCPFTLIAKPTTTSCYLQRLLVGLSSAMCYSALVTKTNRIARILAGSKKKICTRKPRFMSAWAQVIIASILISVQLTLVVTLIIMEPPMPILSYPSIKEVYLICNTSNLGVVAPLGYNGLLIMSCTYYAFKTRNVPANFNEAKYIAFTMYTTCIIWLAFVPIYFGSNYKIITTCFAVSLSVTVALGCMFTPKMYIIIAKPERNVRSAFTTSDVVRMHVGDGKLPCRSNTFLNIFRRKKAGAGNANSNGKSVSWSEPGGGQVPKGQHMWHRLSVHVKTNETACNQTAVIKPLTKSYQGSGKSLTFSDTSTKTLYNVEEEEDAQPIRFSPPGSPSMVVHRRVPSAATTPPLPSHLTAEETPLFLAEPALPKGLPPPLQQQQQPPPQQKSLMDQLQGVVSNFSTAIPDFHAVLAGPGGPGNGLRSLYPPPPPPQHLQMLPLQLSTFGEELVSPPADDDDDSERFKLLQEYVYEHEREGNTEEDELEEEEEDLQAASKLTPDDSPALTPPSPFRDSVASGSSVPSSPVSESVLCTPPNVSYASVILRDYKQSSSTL

[9] = Cmax in rat brain at 5 mg/kg, po; type: ADME, organism-based; set-up: dose 5 mg/kg, route oral
[10] = Ratio of drug level in brain to plasma in mouse at 10 mg/kg, sc after 60 mins; type: ADME, organism-based; set-up: dose 10 mg/kg, route subcutaneous
Brain = experiment: Fraction unbound in rat brain by LC-MS/MS assay; type: ADME, tissue-based
[11] = biological target: Metabotropic glutamate receptor 5 (Homo sapiens) (UniProt P41594); experiment: Antagonist activity at mGlu5 receptor at up to 10 uM; type: functional
Chain of Metabotropic glutamate receptor 5 (Homo sapiens) (P41594 21-1212 limits assumed): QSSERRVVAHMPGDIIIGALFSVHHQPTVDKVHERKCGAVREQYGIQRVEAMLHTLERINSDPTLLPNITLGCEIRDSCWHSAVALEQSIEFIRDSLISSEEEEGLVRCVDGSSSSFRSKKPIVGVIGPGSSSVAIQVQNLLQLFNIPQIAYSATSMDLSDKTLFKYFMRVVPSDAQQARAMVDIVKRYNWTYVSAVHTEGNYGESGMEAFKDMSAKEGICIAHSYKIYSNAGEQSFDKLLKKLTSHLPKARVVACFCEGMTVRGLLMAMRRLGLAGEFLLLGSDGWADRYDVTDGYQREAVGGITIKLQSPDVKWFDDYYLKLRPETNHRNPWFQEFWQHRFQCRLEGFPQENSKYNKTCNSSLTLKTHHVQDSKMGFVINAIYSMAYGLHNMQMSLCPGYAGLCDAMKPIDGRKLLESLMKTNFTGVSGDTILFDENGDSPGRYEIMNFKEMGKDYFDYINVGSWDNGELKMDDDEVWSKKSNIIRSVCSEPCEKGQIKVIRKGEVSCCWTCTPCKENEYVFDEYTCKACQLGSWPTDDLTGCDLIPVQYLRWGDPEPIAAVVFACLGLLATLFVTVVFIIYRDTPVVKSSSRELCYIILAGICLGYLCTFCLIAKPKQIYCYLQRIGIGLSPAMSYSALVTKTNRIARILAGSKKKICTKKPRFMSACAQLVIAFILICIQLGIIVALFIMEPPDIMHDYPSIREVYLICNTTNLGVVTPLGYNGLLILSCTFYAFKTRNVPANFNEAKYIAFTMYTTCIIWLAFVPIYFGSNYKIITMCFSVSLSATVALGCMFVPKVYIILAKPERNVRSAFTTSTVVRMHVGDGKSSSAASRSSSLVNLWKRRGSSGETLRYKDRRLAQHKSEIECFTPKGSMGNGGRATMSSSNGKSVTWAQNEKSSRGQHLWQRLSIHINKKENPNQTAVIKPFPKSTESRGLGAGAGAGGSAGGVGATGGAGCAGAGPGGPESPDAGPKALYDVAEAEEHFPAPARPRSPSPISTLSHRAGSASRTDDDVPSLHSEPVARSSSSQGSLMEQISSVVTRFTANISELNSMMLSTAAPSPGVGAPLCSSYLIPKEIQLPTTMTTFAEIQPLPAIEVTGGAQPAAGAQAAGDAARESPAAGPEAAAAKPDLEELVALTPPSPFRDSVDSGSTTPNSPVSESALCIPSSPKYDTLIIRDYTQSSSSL

[12] = biological target: Metabotropic glutamate receptor 1 (Homo sapiens) (UniProt Q13255); experiment: Antagonist activity at mGlu1 receptor at up to 10 uM; type: functional
[13] = biological target: Metabotropic glutamate receptor 5 (Homo sapiens) (UniProt P41594); experiment: Positive allosteric modulation of mGlu5 receptor at up to 10 uM
[14] = biological target: Metabotropic glutamate receptor 5 (Homo sapiens) (UniProt P41594); experiment: Agonist activity at mGlu5 receptor at up to 10 uM; type: functional

Chain of Metabotropic glutamate receptor 2 (Rattus norvegicus, UniProt P31421) (P31421 whole entry): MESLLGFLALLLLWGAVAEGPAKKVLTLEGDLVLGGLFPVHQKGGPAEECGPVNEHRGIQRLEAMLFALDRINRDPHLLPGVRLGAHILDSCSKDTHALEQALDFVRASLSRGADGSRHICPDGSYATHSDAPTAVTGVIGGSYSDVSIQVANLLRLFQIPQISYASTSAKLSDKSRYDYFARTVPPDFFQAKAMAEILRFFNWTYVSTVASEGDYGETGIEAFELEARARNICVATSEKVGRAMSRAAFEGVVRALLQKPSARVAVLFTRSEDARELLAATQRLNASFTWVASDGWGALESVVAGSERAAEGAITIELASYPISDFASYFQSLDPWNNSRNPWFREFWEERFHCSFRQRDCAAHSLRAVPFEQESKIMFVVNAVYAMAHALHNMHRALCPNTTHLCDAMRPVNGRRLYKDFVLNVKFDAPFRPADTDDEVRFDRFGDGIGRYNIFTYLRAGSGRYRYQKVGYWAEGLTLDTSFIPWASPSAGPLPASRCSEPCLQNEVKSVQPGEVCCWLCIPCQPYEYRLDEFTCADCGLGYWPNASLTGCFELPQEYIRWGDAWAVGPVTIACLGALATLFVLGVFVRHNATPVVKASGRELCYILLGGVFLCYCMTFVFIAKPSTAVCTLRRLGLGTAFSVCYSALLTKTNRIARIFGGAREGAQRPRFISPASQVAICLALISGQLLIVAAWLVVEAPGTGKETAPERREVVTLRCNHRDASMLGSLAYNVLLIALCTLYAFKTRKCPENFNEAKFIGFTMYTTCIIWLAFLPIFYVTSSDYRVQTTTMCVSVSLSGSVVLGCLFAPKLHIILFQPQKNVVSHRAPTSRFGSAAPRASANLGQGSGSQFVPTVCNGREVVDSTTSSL

Row | SMILES | EC50 [1] | Ki (D(2) dopamine receptor) | further results
1 | C[C@@H]1CN(Cc2nc3ncccc3n2C)CC[C@@H]1c1ccc(Cl)cc1F | > 1810 nM | – | –
2 | Cn1c(CN2CCC(c3cccc(C#N)c3)CC2)nc2ccccc21 | 1620 nM | – | –
3 | C[C@@H]1C[C@H](c2ccc(C(F)(F)F)cc2)CCN1Cc1nc2ncccc2n1C | 454 nM | 589 nM | –
4 | C[C@@H]1CN(Cc2nc3ncccc3n2C)CC[C@@H]1c1ccc(C(F)(F)F)cc1F | 993 nM | – | –
5 | Cn1c(CN2CCC(c3ccc(C(F)(F)F)cc3)CC2)nc2cnccc21 | 168 nM | 671 nM | –
6 | COc1cc(C(F)(F)F)ccc1C1CCN(Cc2nc3ncccc3n2C)CC1 | 13 nM | 2430 nM | –
7 | Cn1c(CN2CCC(c3ccc(C(F)(F)F)cc3)CC2)nc2cccnc21 | 285 nM | – | –
8 | Cn1c(CN2CCC(c3ccc(C(F)(F)F)cc3)CC2)nc2ccncc21 | 196 nM | – | –
9 | Cn1c(CN2CCC(c3ccc(C(F)(F)F)cc3)CC2)nc2ccccc21 | 78 nM | 561 nM | –
10 | Cn1c(CN2CCC(c3ccc(C(F)(F)F)cc3)CC2)nc2ncccc21 | 48 nM | 404 nM | Ratio (MDCK): 1.4; Kp at 1 h [2]: 5; Cmax [3]: 5.21 µM; Papp A→B at 1 µM [4]: 30 ×10⁻⁶ cm/s; Ratio (HEK293): 8; clearance [5]: 5.4 mL/min/kg; EC50 [6]: 43 nM; bioavailability [7]: 100%
11 | Cn1c(CN2CCC(c3ccc(F)cc3)CC2)nc2ccccc21 | 159 nM | 24 nM | –
12 | Cn1c(CN2CCC(c3ccccc3Cl)CC2)nc2ccccc21 | 144 nM | – | –
13 | Cn1c(CN2CCC(c3ccccc3C(F)(F)F)CC2)nc2ccccc21 | 109 nM | – | –
14 | COc1cc(C(F)(F)F)ccc1[C@@H]1CCN(Cc2nc3ncccc3n2C)C[C@@H]1C | 22 nM | > 5260 nM | Ratio (MDCK): 1.5; Activity [8]: inactive; Cmax [9]: 1.58 µM; Kp at 1 h [2]: 8; Papp A→B at 1 µM [4]: 19 ×10⁻⁶ cm/s; Ratio (HEK293): > 239; Kp at 1 h [10]: 1.7; Fu (Brain): 0.6%; EC50 [6]: 76 nM; Activity [11]: inactive; Activity [12]: inactive; Activity [13]: inactive; Activity [14]: inactive
15 | C[C@H]1CN(Cc2nc3ncccc3n2C)CC[C@H]1c1ccc(C(F)(F)F)cc1 (racemic) | 111 nM | > 2800 nM | –
16 | Cn1c(CN2CCC(c3ccccc3)CC2)nc2ccccc21 | 212 nM | – | –
17 | C[C@H]1CN(Cc2nc3ncccc3n2C)CC[C@H]1c1ccc(C(F)(F)F)cc1 | 33 nM | > 2800 nM | –
